Data from patent US20240398805A1, “QUINAZOLINE DERIVED COMPOUNDS AS EGFR INHIBITORS AND THEIR USES THEREOF” (ACCUTAR BIOTECHNOLOGY INC., priority 2021, published 2024).

Assays:
Assay type in all cases: cell-based
[1] = system: HCC827-YVMA cells (human ERBB2 exon20 insertion mutant A775_G776ins YVMA); test: Cell growth inhibition (CellTiter-Glo, 3 days) in HCC827-YVMA; details: 72 h, 3 days after administration
Text: (§1) 1. Preparation of HCC827-SVD, HCC827-ASV and HCC827-YVMA Cell Lines
(§2) HCC827-ASV and HCC827-YVMA cell lines were generated in the similar approach as HCC827-SVD except that HCC827 cells (ATCC) were first transduced with lentiviral particles expressing codon-optimized human EGFR exon 20 insertion mutant A769_D770insASV and human ERBB2 exon20 insertion mutant A775_G776ins YVMA, respectively.
(§3) 2. Cell Growth Inhibition for HCC827, HCC827-SVD, HCC827-ASV, HCC827-YVMA and A431.
(§4) HCC827(ATCC), HCC827-SVD, HCC827-ASV, HCC827-YVMA were seeded in 96-well plates at 5000 cells/well in 90 μl of RPMI growth medium containing 10% FBS and 1% Penicillin Streptomycin. A431 (ATCC) cells were seed in 96-well plates at 5000 cells/well in 90 μl of DMEM growth medium containing 10% FBS and 1% Penicillin Streptomycin. Cells were incubated at 3700 overnight. The following day, the test compound was administered to the cells by using 1 Ox compound stock solution prepared in growth medium at various concentrations. After administration of the compound, cells were then incubated at 3700 for 3 days. Before CeIlTiter-Glo assay, the plates were equilibrated at room temperature for approximately 10 minutes. 100 ul of CelTiter-Glo® Reagent (Promega) was added to each well. The plates were then incubated at room temperature for 10 minutes and luminescence was recorded by EnSpire plate reader (PerkinElmer).

[2] = system: HCC827-SVD cells (human EGFR exon 20 insertion mutant D770_N771 insSVD); test: Cell growth inhibition (CellTiter-Glo, 3 days) in HCC827-SVD; details: 72 h, 3 days after administration
Method: as §1
HCC827-SVD cell line were generated by first transducing HCC827 cells (ATCC) with lentiviral particles expressing codon-optimized human EGFR exon 20 insertion mutant D770_N771 insSVD, and then selecting under 5 μg/ml purimycin treatment for a week.
The resulting cells were further transduced with lentiviral particles carrying EGFR sgRNA and CAS9 to knockout the endogenous alleles of EGFR, and then selected under 500 μg/ml hygromycin B treatment for two weeks. Single clone was subsequently generated by limiting dilution approach. Endogenous EGFR knockout was confirmed by Sanger sequencing of cell genomic DNA and expression of exogenous mutant EGFR was verified by Western blot analysis.
as §3, §4

A431 cells = test: Cell growth inhibition (CellTiter-Glo, 3 days) in A431; details: Homo sapiens, A-431, 72 h, 3 days after administration
Method: as §3, §4

[3] = system: HCC827-ASV cells (human EGFR exon 20 insertion mutant A769_D770insASV); test: Cell growth inhibition (CellTiter-Glo, 3 days) in HCC827-ASV; details: 72 h, 3 days after administration
Text: as §1, §2, §3, §4

HCC827 cells = test: Cell growth inhibition (CellTiter-Glo, 3 days) in HCC827; details: Homo sapiens, 72 h, 3 days after administration
Method: as §3, §4

| SMILES | GI50 [1] | GI50 [2] | GI50 (A431 cells) | GI50 [3] | GI50 (HCC827 cells) |
| --- | --- | --- | --- | --- | --- |
| C=CC(=O)N1CCC(Nc2cc3c(Nc4ccc(Oc5ccnc(N6CCC(C#N)C6)c5)cc4F)ncnc3cc2OC)CC1 (stereo not drawn) [Compound 151, 1-(4-(4-((6-((1-acryloylpiperidin-4-yl)amino)-7-methoxyquinazolin-4-yl)amino)-3-fluorophenoxy)pyridin-2-yl)pyrrolidine-3-carbonitrile] | < 30 nM | < 30 nM | 600 to 1000 nM | < 30 nM | 100 to 300 nM |
| C=CC(=O)N1CCC(Oc2cc3c(Nc4ccc(Oc5ccnc(N6C[C@H]7COC[C@H]7C6)c5)cc4F)ncnc3cc2OC)CC1 [Compound 165, 1-(4-((4-((2-fluoro-4-((2-((3aR,6aS)-tetrahydro-1H-furo[3,4-c]pyrrol-5(3H)-yl)pyridin-4-yl)oxy)phenyl)amino)-7-methoxyquinazolin-6-yl)oxy)piperidin-1-yl)prop-2-en-1-one] | 30 to 60 nM | < 30 nM | ≥ 1000 nM | < 30 nM | 300 to 600 nM |
| C=CC(=O)N1CCC(Nc2cc3c(Nc4ccc(Oc5ccnc(C(=O)NC(C)(C)C)c5)cc4F)ncnc3cc2OC)CC1 [Compound 167, 4-(4-((6-((1-acryloylpiperidin-4-yl)amino)-7-methoxyquinazolin-4-yl)amino)-3-fluorophenoxy)-N-(tert-butyl)picolinamide] | 60 to 100 nM | 60 to 100 nM | 600 to 1000 nM | 30 to 60 nM | < 30 nM |
| C=CC(=O)N1CCC(Nc2cc3c(Nc4ccc(Oc5ccnc(C(=O)NC)c5)cc4F)ncnc3cc2OC)CC1 [Compound 181, 4-(4-((6-((1-acryloylpiperidin-4-yl)amino)-7-methoxyquinazolin-4-yl)amino)-3-fluorophenoxy)-N-methylpicolinamide] | < 30 nM | < 30 nM | 100 to 300 nM | < 30 nM | < 30 nM |
| C=CC(=O)N1CCC(Nc2cc3c(Nc4ccc(Oc5ccnc(NC6CCOCC6)c5)cc4F)ncnc3cc2OC)CC1 [Compound 185, 1-(4-((4-((2-fluoro-4-((2-((tetrahydro-2H-pyran-4-yl)amino)pyridin-4-yl)oxy)phenyl)amino)-7-methoxyquinazolin-6-yl)amino)piperidin-1-yl)prop-2-en-1-one] | < 30 nM | < 30 nM | 100 to 300 nM | < 30 nM | < 30 nM |
| C=CC(=O)N1CCC(Nc2cc3c(Nc4ccc(Oc5ccnc(-c6nc(C)no6)c5)cc4F)ncnc3cc2OC)CC1 [Compound 191, 1-(4-((4-((2-fluoro-4-((2-(3-methyl-1,2,4-oxadiazol-5-yl)pyridin-4-yl)oxy)phenyl)amino)-7-methoxyquinazolin-6-yl)amino)piperidin-1-yl)prop-2-en-1-one] | < 30 nM | < 30 nM | 300 to 600 nM | < 30 nM | 30 to 60 nM |
| C=CC(=O)N1CCC(Nc2cc3c(Nc4ccc(Oc5ccnc(-c6nnc(C)o6)c5)cc4F)ncnc3cc2OC)CC1 [Compound 193, 1-(4-((4-((2-fluoro-4-((2-(5-methyl-1,3,4-oxadiazol-2-yl)pyridin-4-yl)oxy)phenyl)amino)-7-methoxyquinazolin-6-yl)amino)piperidin-1-yl)prop-2-en-1-one] | < 30 nM | < 30 nM | ≥ 1000 nM | < 30 nM | 100 to 300 nM |
| C=CC(=O)N1CCC(Nc2cc3c(Nc4ccc(Oc5ccnc(CN6CCOCC6)c5)cc4F)ncnc3cc2OC)CC1 [Compound 210, 1-(4-((4-((2-fluoro-4-((2-(morpholinomethyl)pyridin-4-yl)oxy)phenyl)amino)-7-methoxyquinazolin-6-yl)amino)piperidin-1-yl)prop-2-en-1-one] | < 30 nM | 60 to 100 nM | 600 to 1000 nM | 30 to 60 nM | 300 to 600 nM |
| C=CC(=O)N1CCC(Nc2cc3c(Nc4ccc(Oc5ccnc(-n6cc(C)cn6)c5)cc4F)ncnc3cc2OC)CC1 [Compound 232, 1-(4-((4-((2-fluoro-4-((2-(4-methyl-1H-pyrazol-1-yl)pyridin-4-yl)oxy)phenyl)amino)-7-methoxyquinazolin-6-yl)amino)piperidin-1-yl)prop-2-en-1-one] | < 30 nM | 30 to 60 nM | ≥ 1000 nM | < 30 nM | 60 to 100 nM |
| C=CC(=O)N1CCC(Nc2cc3c(Nc4ccc(Oc5ccnc(-c6ccccc6)c5)cc4F)ncnc3cc2OC)CC1 [Compound 233, 1-(4-((4-((2-fluoro-4-((2-phenylpyridin-4-yl)oxy)phenyl)amino)-7-methoxyquinazolin-6-yl)amino)piperidin-1-yl)prop-2-en-1-one] | < 30 nM | 30 to 60 nM | ≥ 1000 nM | < 30 nM | 60 to 100 nM |
| C=CC(=O)N1CCC(Nc2cc3c(Nc4ccc(Oc5ccnc(NC6CCC6)c5)cc4F)ncnc3cc2OC)CC1 [Compound 243, 1-(4-((4-((4-((2-(cyclobutylamino)pyridin-4-yl)oxy)-2-fluorophenyl)amino)-7-methoxyquinazolin-6-yl)amino)piperidin-1-yl)prop-2-en-1-one] | < 30 nM | < 30 nM | 300 to 600 nM | < 30 nM | 30 to 60 nM |
| C=CC(=O)N1CCC(Nc2cc3c(Nc4ccc(Oc5ccnc(N6C[C@H](OC)[C@H](OC)C6)n5)cc4F)ncnc3cc2OC)CC1 [Compound 260, 1-(4-((4-((4-((2-((3R,4S)-3,4-dimethoxypyrrolidin-1-yl)pyrimidin-4-yl)oxy)-2-fluorophenyl)amino)-7-methoxyquinazolin-6-yl)amino)piperidin-1-yl)prop-2-en-1-one] | < 30 nM | < 30 nM | ≥ 1000 nM | < 30 nM | 100 to 300 nM |
| C=CC(=O)N1CCC(Nc2cc3c(Nc4ccc(Oc5ccn(-c6cc(F)c(C)cn6)n5)c(Cl)c4)ncnc3cc2OC)CC1 [Example 17, 1-(4-((4-((3-chloro-4-((1-(4-fluoro-5-methylpyridin-2-yl)-1H-pyrazol-3-yl)oxy)phenyl)amino)-7-methoxyquinazolin-6-yl)amino)piperidin-1-yl)prop-2-en-1-one] | 600 to 1000 nM | 100 to 300 nM | 100 to 300 nM | 600 to 1000 nM | 60 to 100 nM |
| C=CC(=O)N1CCC(Nc2cc3c(Nc4ccc(Oc5ccn(-c6ccc(C)nc6)n5)cc4F)ncnc3cc2OCC)CC1 [Example 18, 1-(4-((7-ethoxy-4-((2-fluoro-4-((1-(6-methylpyridin-3-yl)-1H-pyrazol-3-yl)oxy)phenyl)amino)quinazolin-6-yl)amino)piperidin-1-yl)prop-2-en-1-one] | < 30 nM | < 30 nM | 100 to 300 nM | < 30 nM | < 30 nM |
| C=CC(=O)N1CCC(Nc2cc3c(Nc4cc(Cl)c(Oc5ccn(-c6cnc(C)c(F)c6)n5)cc4F)ncnc3cc2OC)CC1 [Example 19, 1-(4-((4-((5-chloro-2-fluoro-4-((1-(5-fluoro-6-methylpyridin-3-yl)-1H-pyrazol-3-yl)oxy)phenyl)amino)-7-methoxyquinazolin-6-yl)amino)piperidin-1-yl)prop-2-en-1-one] | 60 to 100 nM | 30 to 60 nM | 100 to 300 nM | 30 to 60 nM | < 30 nM |
